Patent US7879825B2, “Derivatives of [2-(8,9-dioxo-2,6-diazabicyclo[5.2.0]non-1(7)-en-2-yl)alkyl] phosphonic acid and methods of use thereof” (Wyeth LLC, priority 2003, dated 2011)
Marks after values point to notes of the source that are not given here.

Legend:
[1] = system: PGE2-induced thermal hypersensitivity; experiment: Reversal of prostaglandin E2 (PGE2)-induced thermal hypersensitivity, warm-water tail withdrawal; type: in vivo, Sprague-Dawley rats; settings: single oral (PO) dose before PGE2 injection into tail, assessed 30 min after PGE2, SEM in parentheses
Method: The compounds of the present invention were evaluated for their effectiveness to treat pain. […] The test methods used herein have been used by others skilled in the art to evaluate the effectiveness of compounds for relieving pain. See e.g., Bennett G J and Xie T K, A peripheral mononeuropathy in rat produces disorders of pain sensation like those seen in man, Pain 33: 87-107 (1988); Chaplan S R, Bach […], Chung J M and Yaksh T L, Quantitative assessment of tactile allodynia in the rat paw, J. Neurosci. Methods 53: 55-63 (1994); and Mosconi T and Kruger L, Fixed-diameter polyethylene cuffs applied to the rat sciatic nerve induce a painful neuropathy: ultrastructural morphometric analysis of axonal alterations Pain 64: 37-57 (1996). Individually housed Sprague-Dawley rats had free access to rat chow and water. A 12-h light/12-h dark cycle was in effect (lights on from 6:00 am to 6:00 pm). Animal maintenance and research were conducted in accordance with the guidelines provided by the National Institutes of Health Committee on Laboratory Animal Resources. These subjects were used in the tests below. The terminal 10 cm of the tail was placed into a thermos bottle containing water warmed to 38, 42, 46, 50 or 54° C. The latency in seconds for the animal to remove the tail from the water was used as a measure of nociception. […] Temperature-effect curves were generated before (baseline) and 30 minutes after the PGE2 injection. […] The ability of compounds to reverse PGE2-induced thermal hypersensitivity was assessed using a single dose time-course procedure. […] sensitivity was assessed 30 min after PGE2 injection. Data Analysis-The temperature that produced a half-maximal increase in the tail-withdrawal latency (i.e., T10) was calculated from each temperature-effect curve. The T10 was determined by interpolation from a line drawn between the point above and the point below 10 sec on the temperature-effect curve.

| SMILES | Reversal of PGE2-induced thermal hypersensitivity, % MPE (±1 SEM) ([1]; 10 mg/kg) | Reversal of PGE2-induced thermal hypersensitivity, % MPE (±1 SEM) ([1]; 30 mg/kg) | melting point [°C] |
| --- | --- | --- | --- |
| CCCC(CCC)C(=O)OCOP(=O)(CCN1CCCNc2c1c(=O)c2=O)OCOC(=O)C(CCC)CCC [Example 2, 3-{2-[8,9-Dioxo-2,6-diazabicyclo[5.2.0]non-1(7)-en-2-yl]ethyl}-3-oxido-7-oxo-8-propyl-2,4,6-trioxa-3-Phosphaundec-1-yl 2-propylpentanoate] | 45.6 (13.9) % MPE | 76.5 (3.3) % MPE |  |
| CC(OC(=O)C1CCCCC1)OP(=O)(CCN1CCCNc2c1c(=O)c2=O)OC(C)OC(=O)C1CCCCC1 (stereo not shown) [Example 5, 7-cyclohexyl-3-{2-[8,9-dioxo-2,6-diazabicyclo[5.2.0]non-1(7)-en-2-yl]ethyl}-1,5-dimethyl-3-oxido-7-oxo-2,4,6-trioxa-3-phosphahept-1-yl cyclohexanecarboxylate] |  | 55.9 (9.8) % MPE |  |
| O=C(OCOP(=O)(CCN1CCCNc2c1c(=O)c2=O)OCOC(=O)C1CCCCC1)C1CCCCC1 [Example 6, 7-Cyclohexyl-3-{2-[8,9-dioxo-2,6-diazabicyclo[5.2.0]non-1(7)-en-2-yl]ethyl}-3-oxido-7-oxo-2,4,6-trioxa-3-phosphahept-1-yl cyclohexanecarboxylate] |  | 16.8 (6.8) % MPE | 64 to 65 |
| CC(OC(=O)C1CCCCC1)OP(=O)(CCN1CCCNc2c1c(=O)c2=O)OC(C)OC(=O)C1CCCCC1 (stereo not shown) [Example 4, 7-Cyclohexyl-3-{2-[8,9-dioxo-2,6-diazabicyclo[5.2.0]non-1(7)-en-2-yl]ethyl}-1,5-dimethyl-3-oxido-7-oxo-2,4,6-trioxa-3-phosphahept-1-yl cyclohexanecarboxylate] |  | 78.9 (5.8) % MPE |  |
| CC(C)(C)C(=O)OCOC(CCN1CCCNc2c1c(=O)c2=O)(O[PH2]=O)OC(=O)C(C)(C)C (stereo not shown) [Example 3, 2,2-Dimethyl-propionic acid (2,2-dimethyl-propionyloxymethoxy)-[2-(8,9-dioxo-2,6-diaza-bicyclo[5.2.0]non-1(7)-en-2-yl)-ethyl]-phosphinoyloxymethyl ester] |  | 87.6 (3.3) % MPE |  |
| O=c1c2c(c1=O)N(CCP(=O)(O)O)CCCN2 [Comparative 1, [2-(8,9-dioxo-2,6-diazabicyclo[5.2.0]non-1(7)-en-2-yl)ethyl]phosphonic acid, reference compound] | −4.7 (10.6)** % MPE | 44 (9.5) % MPE |  |
| CC(C)OC(=O)OCOP(=O)(CCN1CCCNc2c1c(=O)c2=O)OCOC(=O)OC(C)C [Example 7, [2-(8,9-Dioxo-2,6-diaza-bicyclo[5.2.0]non-1-(7)-en-2-yl)-ethyl]-phosphonic acid diiso propoxycarbonyloxymethyl ester] | 47.0 (12.6) % MPE | 77.5 (6.7) % MPE |  |
| O=C(OCOP(=O)(CCN1CCCNc2c1c(=O)c2=O)OCOC(=O)c1ccccc1)c1ccccc1 [Example 1, 3-{2-[8,9-Dioxo-2,6-diazabicyclo[5.2.0]non-1(7)-en-2-yl]ethyl}-3-oxido-7-oxo-7-phenyl-2,4,6-trioxa-3-phosphahept-1-yl benzoate] | 57.2 (4.7) % MPE | 81 (3.4) % MPE |  |
